This is an account of results in patent US10292972B1, “Pharmaceutical composition for treating cancer and a method thereof” (King Abdulaziz University, priority 2017, dated 2019).

What all share (assay type): cell-based, human
The test system of assay [1] is MCF7 breast cancer cells. Put plainly: Hoechst 33342 staining of nuclear morphological changes (apoptosis). The settings on record: MCF7, 150 μM, 24 hrs, FIG. 3B. As to the method: MCF7 cells (2×10^4 cells/well) were treated with 3 μM, 30 μM, 300 μM, 600 μM, 1.5 mM of isopicrinine at 37° C. in a humidified incubator with 5% CO2 for 20 hrs. After the drug treatment, cells were analysed under phase contrast microscope. Cytotoxicity was detected at 300 μM concentration onwards in all the samples. […] The nuclear morphological changes, which are mainly associated with apoptosis were analysed by Hoechst 33342 staining. Briefly, MCF7 cells (2×10^4 cells/well) were grown on coverslips and treated with 150 μM of purified alkaloid for 24 hrs. The cells were washed with Dulbecco's phosphate buffer saline (DPBS) and fixed with 100% methanol for 15 min at room temperature. Cells were washed with DPBS and stained with Hoechst 33342 for 15 min at room temperature. The cells were washed thrice with DPBS and analysed under fluorescent microscope (Nikon, Japan).

Assay [2] relates to MCF7 breast cancer cells. Put plainly: RNA-Seq gene expression profiling of isopicrinine-treated MCF7 cells. The following applies: MCF7, 30 μM and 150 μM.
The test system of assay [3] is MCF7 breast cancer cells. Put plainly: cells. As to the method: MCF7, a breast cancer cell line was procured from the American Type Culture Collection (ATCC) and propagated in Dulbecco's Modified Eagle's medium (DMEM) supplemented with 10% (v/v) fetal bovine serum (FBS), 100 μg/ml streptomycin and 100 U/ml penicillin at 37° C. in a humidified incubator with 5% CO2. Human pancreatic cell lines, AsPC1 and PANC1, were obtained from the American Type Culture Collection (ATCC). AsPC1 cell line was grown in RPMI-1640 medium supplemented with 10% (v/v) fetal bovine serum (FBS), 100 μg/ml streptomycin and 100 U/ml penicillin. PANC1 cell line was cultured in DMEM supplemented with 10% (v/v) fetal bovine serum (FBS), 100 μg/ml streptomycin and 100 U/ml penicillin.
MCF7 cells (2×10^4 cells/well) were sub-cultured in 24-well plate and incubated at 37° C. in a humidified incubator with 5% CO2 for 20 hrs. […] After the drug treatment, cells were analysed under phase contrast microscope. […]
MCF7 cells (2×10^4 cells/well) were treated with 3 μM, 30 μM, 300 μM, 600 μM, 1.5 mM of isopicrinine at 37° C. in a humidified incubator with 5% CO2 for 20 hrs. After the drug treatment, cells were analysed under phase contrast microscope. Cytotoxicity was detected at 300 μM concentration onwards in all the samples. […] The nuclear morphological changes, which are mainly associated with apoptosis were analysed by Hoechst 33342 staining. […]

As a reminder, the IC50 is the concentration that inhibits the measured activity by half. For the compound `C/C=C1\CN2[C@H]3C[C@@H]1[C@@H](C(=O)OC)[C@]14C[C@H]2O[C@]31Nc1ccccc14` [isopicrinine], in the assay with MCF7 breast cancer cells [1], the “nuclear morphology, Hoechst 33342 staining” value is “chromatin condensation and nuclear fragmentation”. The “cell proliferation at low doses compared to DMSO control” value in the assay on MCF7 breast cancer cells [2] was “prevented further cell proliferation”. The IC50 with MCF7 breast cancer cells [3] (Homo sapiens, MCF7, 20 h, read-out: IC50 value (cytotoxic activity against MCF7 cells)) stood at 240 µM. Besides, the “cell morphology after treatment with high doses” value in the assay on MCF7 breast cancer cells [3] (MCF7, FIGS. 2D-2F (300, 600, 1,500 μM)) was “cell shrinkage, cellular detachment and loss of adherent morphology”.
